Data on 15 compounds can be found in EP4678638A1, “NEW E3 UBIQUITIN LIGASE LIGAND, PROTEIN DEGRADATION AGENT AND USE THEREOF” (priority 2023, dated 2024).

The subject of one experiment is SR. As to the kind of experiment: CCK-8 proliferation, SR. It counts as cell-based, Human. The conditions noted are these: Homo sapiens; Table B10, compounds designed based on the IRAK4 inhibitors; SR cells; read-out: Inhibitory activity (IC50, nM) on tumor cell proliferation, SR. The procedure, abridged: (§1)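 CCK-8 viability readout; IC50 from growth-inhibition curve fitting. Cells plated, dosed 24h later with a 10-point series, top 10µM, 5-fold steps. Culture at 37°C, 5% CO2.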

In the next experiment the test system is MV-4-11. As to the kind of experiment: CCK-8 proliferation, MV-4-11. In kind it is cell-based, Human. The conditions noted are these: Homo sapiens, MV4-11. On the procedure: The tumor cells used herein were cultured in a cell culture medium listed in table A1 at 37°C in an incubator with 5% CO2. Prior to experimentation, all cell lines used were correctly identified by STR profiling, and tested negative for mycoplasma contamination using a mycoplasma detection kit through routine screenings. Table A1. Tumor cells and cell culture medium used in the present disclosure
IC50 values of the compounds of the present disclosure (including the compounds in Table 1, and compounds of examples) were measured using the Meilun Cell Counting Kit-8 kit from Dalian Meilun Biotech Co., Ltd. Assay details are as follows: tumor cells were seeded in a 96-well plate at a density listed in Table A2. After 24h, 100 µL of the inoculated cells were treated with 0.5µL of the compounds of the present disclosure (including the compounds in Tables 1 and 2, and compounds of examples) at 10 different successively decreasing concentrations (starting at the highest concentration of 10µM; 5-fold serial dilutions). After the cells were treated with the compounds of the present disclosure for a period of time, the cell viability detection reagent was added to the culture medium for cell viability assessment according to the instructions provided with the CCK-8 kit. […] The growth inhibition of the compounds of the present disclosure on cells was plotted by Prism Graphpad software, and the IC50 values of the compounds of the present disclosure were calculated therefrom. […] Seeding protocol and treatment time for tumor cells

Another experiment deals with MM.1S. Briefly: CCK-8 proliferation, MM.1S. It counts as cell-based. The conditions noted are these: Homo sapiens, MM1.S; CCK-8; 72 hours; read-out: Inhibitory activity (IC50) on tumor cell proliferation, MM1S. The method in brief:
as §1

The next experiment addresses T1, IKZF2 (Homo sapiens, UniProt Q96SW2+Q9UKS7).
T1 construct: evaluate the effects of the compounds of the present disclosure on the expression of target proteins in cells; endogenous in cells; host or cells: hPBMC
Briefly: Western blot degradation of IKZF2 (hPBMC). In kind it is cell-based. To be noted: Table D16. The method in brief:
(§2)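 Degradation is assessed by immunoblotting lysates of treated cells. Target bands are quantified by grayscale and normalised to an internal control, so degradation rate equals 100% minus % remaining.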

Another experiment deals with T2, CK1a (Homo sapiens, UniProt P48729+Q96SW2).
T2 construct: evaluate the effects of the compounds of the present disclosure on the expression of target proteins in cells; endogenous in cells; host or cells: hPBMC
Briefly: Western blot degradation of CK1a (hPBMC). The conditions noted are these: Table D16. It counts as cell-based. The procedure, abridged:
as §2

A further experiment deals with T3, IKZF1 (Homo sapiens, UniProt Q13422+Q96SW2).
T3 construct: evaluate the effects of the compounds of the present disclosure on the expression of target proteins in cells; endogenous in cells; host or cells: hPBMC
T3 sequence (Q13422 whole entry): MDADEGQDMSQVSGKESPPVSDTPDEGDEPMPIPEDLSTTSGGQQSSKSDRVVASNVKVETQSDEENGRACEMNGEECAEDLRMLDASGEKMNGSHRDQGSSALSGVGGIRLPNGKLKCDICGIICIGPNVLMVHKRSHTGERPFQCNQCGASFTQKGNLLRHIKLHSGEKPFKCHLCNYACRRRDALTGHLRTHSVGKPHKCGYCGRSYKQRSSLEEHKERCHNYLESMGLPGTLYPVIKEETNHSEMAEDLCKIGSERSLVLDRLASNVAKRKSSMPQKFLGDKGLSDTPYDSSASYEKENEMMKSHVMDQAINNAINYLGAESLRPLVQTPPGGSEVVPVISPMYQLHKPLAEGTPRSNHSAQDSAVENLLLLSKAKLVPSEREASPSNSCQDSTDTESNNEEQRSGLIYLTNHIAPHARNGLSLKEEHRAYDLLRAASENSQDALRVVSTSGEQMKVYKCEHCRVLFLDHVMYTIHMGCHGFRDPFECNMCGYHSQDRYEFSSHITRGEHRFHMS
T3 sequence (Q96SW2 whole entry): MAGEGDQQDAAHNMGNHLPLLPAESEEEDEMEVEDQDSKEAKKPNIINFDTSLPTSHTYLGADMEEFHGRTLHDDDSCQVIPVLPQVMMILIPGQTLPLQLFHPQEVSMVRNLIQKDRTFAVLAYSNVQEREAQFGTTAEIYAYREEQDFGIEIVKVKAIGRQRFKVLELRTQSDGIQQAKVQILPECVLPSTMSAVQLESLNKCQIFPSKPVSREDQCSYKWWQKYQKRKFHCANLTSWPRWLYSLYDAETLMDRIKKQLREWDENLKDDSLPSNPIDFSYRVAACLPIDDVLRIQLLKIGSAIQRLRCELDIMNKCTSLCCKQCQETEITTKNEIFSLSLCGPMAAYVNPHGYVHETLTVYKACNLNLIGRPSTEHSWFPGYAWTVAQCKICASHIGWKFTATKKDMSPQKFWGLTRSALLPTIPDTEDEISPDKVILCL
T3 sequence (Q16531 whole entry partner): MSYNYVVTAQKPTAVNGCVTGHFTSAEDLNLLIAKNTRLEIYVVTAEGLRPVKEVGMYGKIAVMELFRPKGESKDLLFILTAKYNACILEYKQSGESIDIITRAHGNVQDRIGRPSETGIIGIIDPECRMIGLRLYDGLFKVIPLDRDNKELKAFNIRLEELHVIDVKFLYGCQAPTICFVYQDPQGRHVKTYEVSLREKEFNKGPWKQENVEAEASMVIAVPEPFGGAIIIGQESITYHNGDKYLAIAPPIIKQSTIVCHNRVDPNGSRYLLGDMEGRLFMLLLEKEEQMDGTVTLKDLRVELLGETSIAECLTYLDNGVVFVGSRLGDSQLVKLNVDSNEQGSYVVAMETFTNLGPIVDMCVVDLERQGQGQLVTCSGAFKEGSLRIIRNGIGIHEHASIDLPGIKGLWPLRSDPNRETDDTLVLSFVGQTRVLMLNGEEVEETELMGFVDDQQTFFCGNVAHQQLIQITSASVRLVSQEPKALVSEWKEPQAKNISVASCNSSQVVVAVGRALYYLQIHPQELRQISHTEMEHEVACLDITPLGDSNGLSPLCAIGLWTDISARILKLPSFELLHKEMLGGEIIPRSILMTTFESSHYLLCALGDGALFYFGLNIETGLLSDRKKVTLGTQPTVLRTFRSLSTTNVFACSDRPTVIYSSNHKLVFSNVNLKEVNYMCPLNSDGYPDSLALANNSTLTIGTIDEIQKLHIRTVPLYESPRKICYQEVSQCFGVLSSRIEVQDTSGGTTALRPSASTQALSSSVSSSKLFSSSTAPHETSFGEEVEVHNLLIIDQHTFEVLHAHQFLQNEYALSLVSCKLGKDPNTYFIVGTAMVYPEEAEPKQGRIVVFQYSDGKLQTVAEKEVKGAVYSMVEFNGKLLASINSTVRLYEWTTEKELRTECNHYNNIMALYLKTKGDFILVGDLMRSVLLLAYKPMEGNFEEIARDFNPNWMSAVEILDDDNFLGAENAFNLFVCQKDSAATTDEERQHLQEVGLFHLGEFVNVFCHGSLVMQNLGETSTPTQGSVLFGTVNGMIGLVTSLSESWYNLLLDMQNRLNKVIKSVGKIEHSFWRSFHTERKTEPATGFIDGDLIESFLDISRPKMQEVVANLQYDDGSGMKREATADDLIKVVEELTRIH
As to the kind of experiment: Western blot degradation of IKZF1 (hPBMC). It counts as cell-based. The conditions noted are these: Table D16. The method in brief: as §2

For another experiment, the target named is T4, GSPT1 (Homo sapiens, UniProt P15170+Q96SW2).
T4 construct: evaluate the effects of the compounds of the present disclosure on the expression of target proteins in cells; endogenous in cells; host or cells: hPBMC
T4 sequence (P15170 whole entry): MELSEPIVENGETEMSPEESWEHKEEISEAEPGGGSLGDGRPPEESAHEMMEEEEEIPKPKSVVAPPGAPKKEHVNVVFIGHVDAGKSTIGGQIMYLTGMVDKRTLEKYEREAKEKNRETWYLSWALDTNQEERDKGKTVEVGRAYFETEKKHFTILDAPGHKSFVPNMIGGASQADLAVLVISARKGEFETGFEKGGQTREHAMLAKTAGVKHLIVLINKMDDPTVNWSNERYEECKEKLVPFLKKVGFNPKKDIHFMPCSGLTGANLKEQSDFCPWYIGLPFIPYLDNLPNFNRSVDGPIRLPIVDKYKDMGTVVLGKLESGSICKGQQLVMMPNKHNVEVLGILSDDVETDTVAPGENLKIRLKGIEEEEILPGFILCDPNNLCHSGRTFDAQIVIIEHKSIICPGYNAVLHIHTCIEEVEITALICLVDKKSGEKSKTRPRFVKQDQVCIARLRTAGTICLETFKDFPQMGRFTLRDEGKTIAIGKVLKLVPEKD
T4 sequence (Q96SW2 whole entry): as the sequence (Q96SW2 whole entry) above
T4 sequence (Q16531 whole entry partner): as the sequence (Q16531 whole entry partner) above
Briefly: Western blot degradation of GSPT1 (hPBMC). To be noted: Table D16. It counts as cell-based. The method in brief:
as §2

Another experiment concerns the target T5, WEE1 (Homo sapiens, UniProt P30291+Q96SW2).
T5 construct: evaluate the effects of the compounds of the present disclosure on the expression of target proteins in cells; endogenous in cells; host or cells: hPBMC
Briefly: Western blot degradation of WEE1 (hPBMC). It counts as cell-based. The conditions noted are these: Table D16. The method in brief: as §2

Another experiment addresses T6, IKZF3 (Homo sapiens, UniProt Q96SW2+Q9UKT9).
T6 construct: evaluate the effects of the compounds of the present disclosure on the expression of target proteins in cells; endogenous in cells; host or cells: hPBMC
Briefly: Western blot degradation of IKZF3 (hPBMC). In kind it is cell-based. To be noted: Table D16. The method in brief: as §2

For another experiment, the system named is MCF7. As to the kind of experiment: CCK-8 proliferation, MCF7 (MCF-7). In kind it is cell-based. The conditions noted are these: Homo sapiens, MCF7; CCK-8; read-out: Inhibitory activity (IC50) on tumor cell proliferation, MCF-7. The method in brief: as §1
[1] abbreviates: Table B10, compounds designed based on the IRAK4 inhibitors, MV-4-11 cells, read-out: Inhibitory activity (IC50, nM) on tumor cell proliferation, MV-4-11.
The mark [2] stands for this setting: CCK-8, 72 or 96 hours, read-out: Inhibitory activity (IC50) on tumor cell proliferation, MV-4-11.

Like-named read-outs stand apart in the source and are kept apart here.

T1 sequence (Q9UKS7 whole entry): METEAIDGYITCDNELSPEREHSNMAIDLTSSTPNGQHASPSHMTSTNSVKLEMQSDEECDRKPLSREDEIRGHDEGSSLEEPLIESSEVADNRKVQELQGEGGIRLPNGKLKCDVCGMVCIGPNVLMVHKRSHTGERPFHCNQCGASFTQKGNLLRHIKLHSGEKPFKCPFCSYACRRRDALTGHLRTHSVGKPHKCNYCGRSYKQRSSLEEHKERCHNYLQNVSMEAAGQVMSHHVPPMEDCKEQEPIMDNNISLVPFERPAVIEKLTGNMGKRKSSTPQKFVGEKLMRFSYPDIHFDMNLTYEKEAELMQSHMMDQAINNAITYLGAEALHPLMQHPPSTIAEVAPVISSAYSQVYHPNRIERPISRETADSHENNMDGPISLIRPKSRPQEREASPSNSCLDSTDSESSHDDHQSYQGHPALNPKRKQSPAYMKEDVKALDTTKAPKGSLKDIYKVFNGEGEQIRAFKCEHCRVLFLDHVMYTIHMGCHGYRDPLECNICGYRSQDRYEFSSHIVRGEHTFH
T1 sequence (Q96SW2 whole entry): as the sequence (Q96SW2 whole entry) above
T1 sequence (Q16531 whole entry partner): as the sequence (Q16531 whole entry partner) above
T6 sequence (Q9UKT9 whole entry): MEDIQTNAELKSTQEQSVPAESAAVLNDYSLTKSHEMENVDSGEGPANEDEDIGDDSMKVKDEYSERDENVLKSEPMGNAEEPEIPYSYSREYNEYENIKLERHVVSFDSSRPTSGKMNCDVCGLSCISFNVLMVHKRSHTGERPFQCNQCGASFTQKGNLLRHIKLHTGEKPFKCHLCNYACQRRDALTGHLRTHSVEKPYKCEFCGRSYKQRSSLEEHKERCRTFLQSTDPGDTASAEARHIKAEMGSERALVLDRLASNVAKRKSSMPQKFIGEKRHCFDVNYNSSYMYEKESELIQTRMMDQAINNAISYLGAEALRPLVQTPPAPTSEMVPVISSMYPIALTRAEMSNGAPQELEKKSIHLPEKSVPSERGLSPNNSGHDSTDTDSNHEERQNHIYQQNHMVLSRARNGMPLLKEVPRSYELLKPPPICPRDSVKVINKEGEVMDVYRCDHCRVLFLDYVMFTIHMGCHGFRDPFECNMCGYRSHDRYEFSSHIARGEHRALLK
T6 sequence (Q96SW2 whole entry): as the sequence (Q96SW2 whole entry) above
T6 sequence (Q16531 whole entry partner): as the sequence (Q16531 whole entry partner) above
T5 sequence (P30291 whole entry): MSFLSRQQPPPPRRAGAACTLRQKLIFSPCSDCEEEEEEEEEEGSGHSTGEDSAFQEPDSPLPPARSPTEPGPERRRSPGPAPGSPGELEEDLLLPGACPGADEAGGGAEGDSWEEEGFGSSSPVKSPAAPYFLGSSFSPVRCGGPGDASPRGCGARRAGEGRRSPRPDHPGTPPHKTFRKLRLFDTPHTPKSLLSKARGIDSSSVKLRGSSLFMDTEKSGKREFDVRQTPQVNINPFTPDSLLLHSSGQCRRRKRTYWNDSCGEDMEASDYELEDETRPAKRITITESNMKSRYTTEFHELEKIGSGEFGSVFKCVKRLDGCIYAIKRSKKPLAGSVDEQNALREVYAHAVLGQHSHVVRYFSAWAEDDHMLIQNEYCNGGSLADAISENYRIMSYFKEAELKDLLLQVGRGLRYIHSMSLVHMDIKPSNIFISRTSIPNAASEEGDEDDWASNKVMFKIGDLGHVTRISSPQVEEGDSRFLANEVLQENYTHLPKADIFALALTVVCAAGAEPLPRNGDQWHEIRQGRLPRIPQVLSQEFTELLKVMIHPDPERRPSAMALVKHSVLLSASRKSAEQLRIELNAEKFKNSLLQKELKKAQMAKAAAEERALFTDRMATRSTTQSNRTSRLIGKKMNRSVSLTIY
T5 sequence (Q96SW2 whole entry): as the sequence (Q96SW2 whole entry) above
T5 sequence (Q16531 whole entry partner): as the sequence (Q16531 whole entry partner) above

`O=C1CCC(c2ccc(CN3CCC(n4cc(NC(=O)c5cnn6ccc(N7CCOCC7)nc56)c(C(F)F)n4)CC3)cc2)C(=O)N1` (stereo not drawn) [GT-03813, N-(3-(difluoromethyl)-1-(1-(4-(2,6-dioxopiperidin-3-yl)benzyl)piperidin-4-yl)-1H-pyrazol-4-yl)-5-morpholinopyrazolo[1,5-a]pyrimidine-3-carboxamide]: the IC50 in the experiment on SR and with MV-4-11 (setting [1]) was 100 to 500 nM each time.

For the compound `O=C1CCN(c2ccc(CN3CCC(n4cc(NC(=O)c5cnn6ccc(N7CCOCC7)nc56)c(C(F)F)n4)CC3)cc2F)C(=O)N1` [GT-03814, N-(3-(difluoromethyl)-1-(1-(4-(2,4-dioxotetrahydropyrimidin-1(2H)-yl)-3-fluorobenzyl)piperidin-4-yl)-1H-pyrazol-4-yl)-5-morpholinopyrazolo[1,5-a]pyrimidine-3-carboxamide], the IC50 in the experiment with MV-4-11 (setting [1]) was 100 to 500 nM.

`Cc1cc(-c2nc(C(=O)Nc3cc4oc(N5CCN(Cc6ccc(C7CCC(=O)NC7=O)cc6)CC5)nc4nc3N3CC[C@@H](O)C3)co2)ccn1` (stereo partly drawn) [GT-03846, N-(2-(4-(4-(2,6-dioxopiperidin-3-yl)benzyl)piperazin-1-yl)-5-((R)-3-hydroxypyrrolidin-1-yl)oxazolo[4,5-b]pyridin-6-yl)-2-(2-methylpyridin-4-yl)oxazole-4-carboxamide]: the IC50 with MV-4-11 (setting [1]) was in the range of 50 to 100 nM.

Regarding `Cc1cc(-c2nc(C(=O)Nc3cc4oc(N5CCN(Cc6ccc(C7CCC(=O)NC7=O)c(F)c6)CC5)nc4nc3N3CC[C@@H](O)C3)co2)ccn1` (stereo partly drawn) [GT-03847, N-(2-(4-(4-(2,6-dioxopiperidin-3-yl)-3-fluorobenzyl)piperazin-1-yl)-5-((R)-3-hydroxypyrrolidin-1-yl)oxazolo[4,5-b]pyridin-6-yl)-2-(2-methylpyridin-4-yl)oxazole-4-carboxamide], the IC50 in the experiment with MV-4-11 (setting [1]) lay within 50 to 100 nM.

For the compound `Nc1nc(Nc2ccc(S(=O)(=O)N3CCN(Cc4cccc(N5CCC(=O)NC5=O)c4)CC3)cc2)nn1C(=O)c1c(F)cccc1F` [GT-06752, 1-(3-((4-((4-((5-amino-1-(2,6-difluorobenzoyl)-1H-1,2,4-triazol-3-yl)amino)phenyl)sulfonyl)piperazin-1-yl)methyl)phenyl)dihydropyrimidine-2,4(1H,3H)-dione], the IC50 with MV-4-11 (setting [2]) is 500 to 1000 nM.

Regarding `Nc1nc(Nc2ccc(S(=O)(=O)N3CCN(Cc4ccc(N5CCC(=O)NC5=O)cn4)CC3)cc2)nn1C(=O)c1c(F)cccc1F` [GT-06753, 1-(6-((4-((4-((5-amino-1-(2,6-difluorobenzoyl)-1H-1,2,4-triazol-3-yl)amino)phenyl)sulfonyl)piperazin-1-yl)methyl)pyridin-3-yl)dihydropyrimidine-2,4(1H,3H)-dione], the IC50 in the experiment with MV-4-11 (setting [2]) lay within 100 to 500 nM.

Regarding `Cc1cc(S(=O)(=O)N2CCN(Cc3ccc(C4CCC(=O)NC4=O)cc3)CC2)ccc1Nc1ncc(Br)c(Nc2cccc(F)c2C(N)=O)n1` (stereo not drawn) [GT-06830, 2-((5-bromo-2-((4-((4-(4-(2,6-dioxopiperidin-3-yl)benzyl)piperazin-1-yl)sulfonyl)-2-methylphenyl)amino)pyrimidin-4-yl)amino)-6-fluorobenzamide], the IC50 in the experiment with MV-4-11 (setting [2]) lay in the range of 100 to 500 nM.

In the case of `Cc1cc(S(=O)(=O)N2CCN(Cc3ccc(N4CCC(=O)NC4=O)cn3)CC2)ccc1Nc1ncc(Br)c(Nc2cccc(F)c2C(N)=O)n1` [GT-06833, 2-((5-bromo-2-((4-((4-((5-(2,4-dioxotetrahydropyrimidin-1(2H)-yl)pyridin-2-yl)methyl)piperazin-1-yl)sulfonyl)-2-methylphenyl)amino)pyrimidin-4-yl)amino)-6-fluorobenzamide], the IC50 in the experiment on MV-4-11 (setting [2]) lay in the range of 50 to 100 nM.

On to `Cc1ccsc1C(=O)n1nc(Nc2ccc(S(=O)(=O)N3CCN(Cc4ccc(C5CCC(=O)NC5=O)cc4)CC3)cc2)nc1N` (stereo not drawn) [GT-06854, 3-(4-((4-((4-((5-amino-1-(3-methylthiophene-2-carbonyl)-1H-1,2,4-triazol-3-yl)amino)phenyl)sulfonyl)piperazin-1-yl)methyl)phenyl)piperidine-2,6-dione], for which the IC50 in the experiment with MV-4-11 (setting [2]) was 100 to 500 nM.

Take `Cc1ccsc1C(=O)n1nc(Nc2ccc(S(=O)(=O)N3CCN(Cc4ccc(C5CCC(=O)NC5=O)c(F)c4)CC3)cc2)nc1N` (stereo not drawn) [GT-06855, 3-(4-((4-((4-((5-amino-1-(3-methylthiophene-2-carbonyl)-1H-1,2,4-triazol-3-yl)amino)phenyl)sulfonyl)piperazin-1-yl)methyl)-2-fluorophenyl)piperidine-2,6-dione]: the IC50 with MV-4-11 (setting [2]) lay in the range of 500 to 1000 nM.

As for `Cc1ccsc1C(=O)n1nc(Nc2ccc(S(=O)(=O)N3CCN(Cc4ccc(N5CCC(=O)NC5=O)cc4F)CC3)cc2)nc1N` [GT-06858, 1-(4-((4-((4-((5-amino-1-(3-methylthiophene-2-carbonyl)-1H-1,2,4-triazol-3-yl)amino)phenyl)sulfonyl)piperazin-1-yl)methyl)-3-fluorophenyl)dihydropyrimidine-2,4(1H,3H)-dione], the IC50 with MV-4-11 (setting [2]) was 100 to 500 nM.

For `Cc1ccsc1C(=O)n1nc(Nc2ccc(S(=O)(=O)N3CCN(Cc4cccc(N5CCC(=O)NC5=O)c4)CC3)cc2)nc1N` [GT-06859, 1-(3-((4-((4-((5-amino-1-(3-methylthiophene-2-carbonyl)-1H-1,2,4-triazol-3-yl)amino)phenyl)sulfonyl)piperazin-1-yl)methyl)phenyl)dihydropyrimidine-2,4(1H,3H)-dione], the IC50 in the experiment on MV-4-11 (setting [2]) is 100 to 500 nM.

Take `Cc1ccsc1C(=O)n1nc(Nc2ccc(S(=O)(=O)N3CCN(Cc4ccc(N5CCC(=O)NC5=O)cn4)CC3)cc2)nc1N` [GT-06860, 1-(6-((4-((4-((5-amino-1-(3-methylthiophene-2-carbonyl)-1H-1,2,4-triazol-3-yl)amino)phenyl)sulfonyl)piperazin-1-yl)methyl)pyridin-3-yl)dihydropyrimidine-2,4(1H,3H)-dione]: the IC50 in the experiment on MV-4-11 (setting [2]) is 100 to 500 nM.

With `O=C1CCN(c2cncc(CCl)c2)C(=O)N1` [GT-07047, 1-(5-(Chloromethyl)pyridin-3-yl)dihydropyrimidine-2,4(1H,3H)-dione], the IC50 with MM.1S and in the experiment with MCF7 was 1000 to 5000 nM in each case. For the same compound, the “Degradation of substrate protein IKZF2 (substrate protein remaining %)” value on IKZF2 is “A (A is defined as 0% ≤ substrate protein remaining % ≤ 80%)”. For the same compound, on CK1a, the “Degradation of substrate protein CKla (substrate protein remaining %)” value was “A (A is defined as 0% ≤ substrate protein remaining % ≤ 80%)”. In addition, on IKZF1, the “Degradation of substrate protein IKZF1 (substrate protein remaining %)” value is given as “A (A is defined as 0% ≤ substrate protein remaining % ≤ 80%)”. Besides, the “Degradation of substrate protein GSPT1 (substrate protein remaining %)” value at GSPT1 is “B (B is defined as substrate protein remaining % > 80%)”. For the same compound, the “Degradation of substrate protein WEE1 (substrate protein remaining %)” value at WEE1 is given as “B (B is defined as substrate protein remaining % > 80%)”. The “Degradation of substrate protein IKZF3 (substrate protein remaining %)” value at IKZF3 was “A (A is defined as 0% ≤ substrate protein remaining % ≤ 80%)”.

For `O=C1CCC(c2cc(CO)ccn2)C(=O)N1` (stereo not drawn) [GT-07050, 3-(4-(Hydroxymethyl)pyridin-2-yl)piperidine-2,6-dione], the IC50 with MM.1S and in the experiment with MCF7 was 1000 to 5000 nM each time. In addition, the “Degradation of substrate protein IKZF2 (substrate protein remaining %)” value on IKZF2 is given as “B (B is defined as substrate protein remaining % > 80%)”. Besides, the “Degradation of substrate protein CKla (substrate protein remaining %)” value on CK1a is listed as “A (A is defined as 0% ≤ substrate protein remaining % ≤ 80%)”. In addition, the “Degradation of substrate protein IKZF1 (substrate protein remaining %)” value at IKZF1 is “A (A is defined as 0% ≤ substrate protein remaining % ≤ 80%)”. The “Degradation of substrate protein GSPT1 (substrate protein remaining %)” value at GSPT1 is given as “A (A is defined as 0% ≤ substrate protein remaining % ≤ 80%)”. At WEE1, the “Degradation of substrate protein WEE1 (substrate protein remaining %)” value is reported as “B (B is defined as substrate protein remaining % > 80%)”. Further, the “Degradation of substrate protein IKZF3 (substrate protein remaining %)” value on IKZF3 is listed as “A (A is defined as 0% ≤ substrate protein remaining % ≤ 80%)”.
